Laboratory results from US9771381B2, “Derivatives of 1-amino-2-cyclobutylethylboronic acid” (Millennium Pharmaceuticals, Inc., priority 2008, dated 2017).

Columns and labels:
[1] = molecular target: human 20S proteasome (Homo sapiens, UniProt P28072+P28074+Q99436); experiment: Proteasome Inhibition Kinetics (enzyme progress curves); assay type: biochemical; details: human 20S proteasome 0.25 nM activated with 0.01% SDS, 37° C.; half-life determined from koff; read-out: dissociation half-life t1/2
Protocol: Enzyme kinetic parameters including dissociation constants and half lives were determined by analysis of enzyme progress curves as follows:
Proteasome inactivation measurements were obtained by monitoring individual progress curves for the hydrolysis of the site-specific fluorogenic 7-amido-4-methylcoumarin (AMC)-labeled peptide substrates (β5, Suc-LLVY-AMC; β2, Z-VLR-AMC, and β1, Z-LLE-AMC) at different inhibitor concentrations. Cleavage of the fluorogenic peptide was continuously monitored as a change in the fluorescence emission at 460 nm (λex=360 nm) and plotted as a function of time. All assays were performed in cuvettes with 2 mL of 50 mM HEPES (pH 7.5), 0.5 mM EDTA, at 37±0.2° C., and with continuous stirring. The concentrations of substrates varied from 10 to 25 μM (<½ KM). The concentration of human 20S proteasome was 0.25 nM and was activated with 0.01% SDS. The rate constant, kobs, describing the conversion from the initial velocity to the steady state velocity, were estimated by nonlinear least-squares regression analysis of the individual progress curves using the equation for time-dependent or slow-binding inhibition:
[formula] where F is fluorescence, vi and vs are the initial and steady state velocities of the reaction in the presence of inhibitor, and t is time. A plot of kobs as a function of [I] was made to obtain kon from the slope of the linear fit of the data. The apparent dissociation constant, K^appii, was determined by nonlinear least-fit of the fractional velocity, vs/vo, as a function of [I], were vs is the steady state value obtained from the time-dependent or slow-binding equation and vo is the initial velocity in the absence of inhibitor: […]
The dissociation constant Ki, was calculated from the apparent Ki using the following expression: […]
The off rate, koff, was mathematically calculated from the above determined parameters using the following relationship:
The half-life was then determined from the koff value using the following relationship: […]

[2] = molecular target: T1, human 20S proteasome (Homo sapiens, UniProt P28074); experiment: 20S Proteasome Assay; assay type: biochemical; details: Ac-WLA-AMC substrate 15 μM, human PA28 activator 12 nM, human 20S proteasome 0.25 nM, 37° C., pH7.4
T1 construct: purchased Boston Biochem

Compound	residence time [1] [min]	IC50 [2] [µM]
O=C(N[C@@H](Cc1ccccc1)C(=O)N[C@@H](CC1CCC1)B(O)O)c1cccnc1Oc1ccccc1 [Compound 2, {(1R)-2-cyclobutyl-1-[((2S)-2-{[(2-phenoxypyridin-3-yl)carbonyl]amino}-3-phenylpropanoyl)amino]ethyl}boronic acid]	10 to 60	< 0.05
O=C(N[C@@H](Cc1ccccc1)C(=O)N[C@@H](CC1CCC1)B(O)O)c1cnccn1 [Compound 17, [(1R)-2-cyclobutyl-1-({(2S)-3-phenyl-2-[(pyrazin-2-ylcarbonyl)amino]propanoyl}amino)ethyl]boronic acid]	10 to 60	< 0.05
O=C(N[C@@H](CC1CCC1)B(O)O)[C@H](Cc1ccccc1)NS(=O)(=O)c1ccc(Oc2cccnc2)cc1 [Compound 45, ((1R)-2-cyclobutyl-1-{[(2S)-3-phenyl-2-({[4-(pyridin-3-yl-oxy)phenyl]sulfonyl}amino)propanoyl]amino}ethyl)boronic acid]	< 10	< 0.05
O=C(N[C@@H](CC1CCC1)B(O)O)[C@H](Cc1ccccc1)NS(=O)(=O)c1ccc2ccccc2c1 [Compound 1, [(1R)-2-cyclobutyl-1-({(2S)-2-[(2-naphthylsulfonyl)amino]-3-phenylpropanoyl}amino)ethyl]boronic acid]	< 10	< 0.05
O=C(N[C@@H](CC1CCC1)B(O)O)[C@H](Cc1ccccc1)NS(=O)(=O)c1ccc2ncsc2c1 [Compound 48, [(1R)-1-({(2S)-2-[(1,3-benzothiazol-6-ylsulfonyl)amino]-3-phenylpropanoyl}-amino)-2-cyclobutylethyl]boronic acid]		< 0.05
O=C(N[C@@H](Cc1ccccc1)C(=O)N[C@@H](CC1CCC1)B(O)O)c1ccc(Oc2ccccc2)nc1 [Compound 39, {(1R)-2-cyclobutyl-1-[((2S)-2-{[(6-phenoxypyridin-3-yl)carbonyl]amino}-3-phenylpropanoyl)amino]ethyl}boronic acid]		< 0.05
O=C(N[C@@H](CC1CCC1)B(O)O)[C@H](Cc1ccccc1)NS(=O)(=O)c1cccc2cnccc12 [Compound 47, [(1R)-2-cyclobutyl-1-({(2S)-2-[(isoquinolin-5-ylsulfonyl)amino]-3-phenylpropanoyl}amino)ethyl]boronic acid]		0.05 to 0.15
O=C(N[C@@H](Cc1ccccc1)C(=O)N[C@@H](CC1CCC1)B(O)O)c1cccc(Oc2ccccc2)c1 [Compound 7, [(1R)-2-cyclobutyl-1-({(2S)-2-[(3-phenoxybenzoyl)amino]-3-phenylpropanoyl}amino)ethyl]boronic acid]		< 0.05
O=C(N[C@@H](CC1CCC1)B(O)O)[C@H](Cc1ccccc1)NC(=O)[C@H](CCc1ccccc1)NS(=O)(=O)Cc1ccccc1 [Compound 4, [(1R,4S,7S)-4-benzyl-1-(cyclobutylmethyl)-9,9-dioxido-3,6-dioxo-10-phenyl-7-(2-phenylethyl)-9-thia-2,5,8-triazadec-1-yl]boronic acid]		< 0.05
O=C(N[C@@H](Cc1ccccc1)C(=O)N[C@@H](CC1CCC1)B(O)O)c1cccnc1Nc1cccc(C(F)(F)F)c1 [Compound 23, {(1R)-2-cyclobutyl-1-[((2S)-3-phenyl-2-{[(2-{[3-(trifluoromethyl)phenyl]amino}pyridin-3-yl)carbonyl]amino}propanoyl)amino]ethyl}boronic acid]		< 0.05
O=C(N[C@@H](Cc1ccccc1)C(=O)N[C@@H](CC1CCC1)B(O)O)c1cc(Cl)ccc1Cl [Compound 6, [(1R)-2-cyclobutyl-1-({(2S)-2-[(2,5-dichlorobenzoyl)amino]-3-phenylpropanoyl}amino)ethyl]boronic acid]	10 to 60	< 0.05
CC1(C)[C@@H]2C[C@H]3OB([C@H](CC4CCC4)NC(=O)[C@H](Cc4ccccc4)NC(=O)c4cccnc4Oc4ccccc4)O[C@@]3(C)[C@H]1C2 [Compound 9, N-[(1S)-1-benzyl-2-({(1R)-2-cyclobutyl-1-[(3aS,4S,6S,7aR)-3a,5,5-trimethylhexahydro-4,6-methano-1,3,2-benzodioxaborol-2-yl]ethyl}amino)-2-oxoethyl]-2-phenoxynicotinamide]		< 0.05

More lines, now with the values ahead:

residence time [1] [min]	IC50 [2] [µM]	Compound
< 10	< 0.05	O=C(N[C@@H](CC1CCC1)B(O)O)[C@H](Cc1ccccc1)NS(=O)(=O)c1cc(Cl)ccc1Cl [Compound 35, {(1R)-2-cyclobutyl-1-[((2S)-2-{[(2,5-dichlorophenyl)sulfonyl]amino}-3-phenylpropanoyl)amino]ethyl}boronic acid]
< 10	< 0.05	O=C(N[C@@H](CC1CCC1)B(O)O)[C@H](Cc1ccccc1)NS(=O)(=O)c1ccc(Oc2ccccn2)cc1 [Compound 41, ((1R)-2-cyclobutyl-1-{[(2S)-3-phenyl-2-({[4-(pyridin-2-yloxy)phenyl]sulfonyl}amino)propanoyl]amino}ethyl)boronic acid]
< 10	< 0.05	O=C(N[C@@H](CC1CCC1)B(O)O)[C@H](Cc1ccccc1)NS(=O)(=O)c1ccc(Oc2ccncc2)cc1 [Compound 43, ((1R)-2-cyclobutyl-1-{[(2S)-3-phenyl-2-({[4-(pyridin-4-yloxy)phenyl]sulfonyl}amino)propanoyl]amino}ethyl)boronic acid]
< 10	< 0.05	O=C(N[C@@H](CC1CCC1)B(O)O)[C@H](Cc1ccccc1)NS(=O)(=O)c1ccc(-c2cnco2)cc1 [Compound 36, ((1R)-2-cyclobutyl-1-{[(2S)-2-({[4-(1,3-oxazol-5-yl)phenyl]sulfonyl}amino)-3-phenylpropanoyl]amino}ethyl)boronic acid]
< 10	< 0.05	CN1CCOc2ccc(S(=O)(=O)N[C@@H](Cc3ccccc3)C(=O)N[C@@H](CC3CCC3)B(O)O)cc21 [Compound 20, {(1R)-2-cyclobutyl-1-[((2S)-2-{[(4-methyl-3,4-dihydro-2H-1,4-benzoxazin-6-yl)sulfonyl]amino}-3-phenylpropanoyl)amino]ethyl}boronic acid]
